# Experimental data: patent publication US20130309306A1, “INTRAPULMONARY BENZODIAZEPINE FOR THE TREATMENT AND PREVENTION OF SEIZURES” (priority 2010, published 2013)
# Marks after values point to notes of the source that are not given here.
# What was measured:
# [1] = Horizontal screen test, acute motor toxicity; type: in vivo, mice; details: intratracheal 100 μg/kg, any time point of the time course experiment
# Method: The horizontal screen test was used to assess the acute motor toxicity of intratracheal midazolam (100 μg/kg) in the time course experiment.
# PTZ-induced convulsions = PTZ-induced convulsions in mice (PTZ 80 mg/kg i.p.); type: in vivo
# Method: (§1) Male NIH Swiss mice (22-30 g) were kept in a vivarium under controlled environmental conditions (temperature, 22-26° C.; humidity, 40-50%) with an artificial 12-h light/dark cycle. Wood chips were used in all cages. Experiments were performed during the light phase of the light/dark cycle after a minimum 30-min period of acclimation to the experimental room. The animal facilities were fully accredited by the Association for Assessment and Accreditation of Laboratory Animal Care. All studies were performed under protocols approved by the Animal Care and Use Committee of the University of California, Davis in strict compliance with the Guide for the Care and Use of Laboratory Animals of the National Research Council (National Academy Press, Washington, D.C.).
# Intratracheal administration of midazolam was carried out as described by Oka et al. (2006). In brief, mice were briefly anesthetized using isoflurane anesthesia (4% isoflurane). The animals were immediately placed on a surgical board held at a 60° angle. The animal's mouth was kept open by hanging the upper incisors on a hook to facilitate detection of the epiglottis. An operating light was used to illuminate the view of the pharynx after displacement of the tongue with a spatula. A syringe fitted with a blunted 24-gauge/25-mm was pushed against the soft palate to enter the trachea past the vocal cords. When the tracheal cartilage ring is felt, the needle is considered properly placed within the tracheal lumen. The needle was inserted almost to the bottom of the trachea. When the animals began to show signs that the anesthesia was waning, the liquid sample was gently injected at a dose volume of 0.25 ml/kg. After the injection of solution, air (1 ml syringe) was blown inside the lungs to uniformly distribute the drug in the lungs. Following the injection, the needle was gently removed and animal was held vertically for 2 min to facilitate the downward movement of liquid in the lungs. The animal was allowed 10 min to recover fully from the anesthesia as confirmed by normal spontaneous exploratory behavior. Seizure testing then commenced. For each of the seizure tests, we verified that there was no residual effect of the anesthetic on responsiveness.
# PTZ was administered intraperitoneally at a dose of 80 mg/kg, which causes clonic convulsions in >97% of mice (Dhir et al., 2006). […] The time of onset of myoclonic jerks, clonus and tonic extension; and the incidence of lethality was recorded.
# Results are expressed as mean±S.E.M.; the significance of the difference in the responses of treatment groups with respect to control is based on one-way analysis of variance (ANOVA) followed by specific post-hoc comparisons using Tukey's test. Differences were considered statistically significant when the probability of error was less than 0.05 (P<0.05). Control values in the threshold tests were the mean threshold values for vehicle-treated groups.
# [2] = tested on: picrotoxin-induced seizure; assay: Picrotoxin seizure threshold test in mice (intravenous infusion); type: in vivo
# [3] = tested on: kainic acid induced seizure; assay: Kainic acid seizure threshold test in mice (intravenous infusion); type: in vivo
# Method: as §1
# Intratracheal administration of midazolam was carried out as described by Oka et al. (2006). In brief, mice were briefly anesthetized using isoflurane anesthesia (4% isoflurane). The animals were immediately placed on a surgical board held at a 60° angle. The animal's mouth was kept open by hanging the upper incisors on a hook to facilitate detection of the epiglottis. […]
# Results are expressed as mean±S.E.M.; the significance of the difference in the responses of treatment groups with respect to control is based on one-way analysis of variance (ANOVA) followed by specific post-hoc comparisons using Tukey's test. […]
# [4] = intraperitoneal 100 μg/kg, pretreatment 10 min
# [5] = intraperitoneal 500 μg/kg, pretreatment 10 min
# [6] = intraperitoneal 750 μg/kg, pretreatment 10 min
# [7] = intraperitoneal 1000 μg/kg, pretreatment 10 min
# [8] = intratracheal 12.5 μg/kg, pretreatment 10 min
# [9] = intratracheal 25 μg/kg, pretreatment 7 min
# [10] = intratracheal 25 μg/kg, pretreatment 10 min
# [11] = intratracheal 50 μg/kg, pretreatment 7 min
# [12] = intratracheal 50 μg/kg, pretreatment 10 min
# [13] = intratracheal 100 μg/kg, pretreatment 7 min
# [14] = intratracheal 100 μg/kg, pretreatment 10 min
# [15] = intratracheal 200 μg/kg, pretreatment 10 min
structure (smiles),measurement,setting,value
"Cc1ncc2n1-c1ccc(Cl)cc1C(c1ccccc1F)=NC2 [Midazolam, midazolam]","acute motor toxicity, horizontal screen test",[1],No motor toxicity was observed
same,Mortality,PTZ-induced convulsions; [4],66.67* percent
same,Percent showing clonus,PTZ-induced convulsions; [4],100%
same,Percent showing extensor,PTZ-induced convulsions; [4],66.67* percent
same,Percent showing myoclonic jerks,PTZ-induced convulsions; [4],100%
same,Mortality,PTZ-induced convulsions; [5],0* percent
same,Percent showing clonus,PTZ-induced convulsions; [5],83.33%
same,Percent showing extensor,PTZ-induced convulsions; [5],0* percent
same,Percent showing myoclonic jerks,PTZ-induced convulsions; [5],100%
same,Mortality,PTZ-induced convulsions; [6],0* percent
same,Percent showing clonus,PTZ-induced convulsions; [6],33.33* percent
same,Percent showing extensor,PTZ-induced convulsions; [6],0* percent
same,Percent showing myoclonic jerks,PTZ-induced convulsions; [6],83.33%
same,Mortality,PTZ-induced convulsions; [7],0* percent
same,Percent showing clonus,PTZ-induced convulsions; [7],0* percent
same,Percent showing extensor,PTZ-induced convulsions; [7],0* percent
same,Percent showing myoclonic jerks,PTZ-induced convulsions; [7],50* percent
same,Mortality,PTZ-induced convulsions; [8],83.33%
same,Percent showing clonus,PTZ-induced convulsions; [8],100%
same,Percent showing extensor,PTZ-induced convulsions; [8],83.33%
same,Percent showing myoclonic jerks,PTZ-induced convulsions; [8],100%
same,Mortality,PTZ-induced convulsions; [9],0* percent
same,Percent showing clonus,PTZ-induced convulsions; [9],83.33%
same,Percent showing extensor,PTZ-induced convulsions; [9],0* percent
same,Percent showing myoclonic jerks,PTZ-induced convulsions; [9],100%
same,Mortality,PTZ-induced convulsions; [10],50* percent
same,Percent showing clonus,PTZ-induced convulsions; [10],100%
same,Percent showing extensor,PTZ-induced convulsions; [10],50* percent
same,Percent showing myoclonic jerks,PTZ-induced convulsions; [10],100%
same,Mortality,PTZ-induced convulsions; [11],0* percent
same,Percent showing clonus,PTZ-induced convulsions; [11],50* percent
same,Percent showing extensor,PTZ-induced convulsions; [11],0* percent
same,Percent showing myoclonic jerks,PTZ-induced convulsions; [11],66.66* percent
same,Mortality,PTZ-induced convulsions; [12],16.66* percent
same,Percent showing clonus,PTZ-induced convulsions; [12],66.66* percent
same,Percent showing extensor,PTZ-induced convulsions; [12],16.66* percent
same,Percent showing myoclonic jerks,PTZ-induced convulsions; [12],83.33%
same,Mortality,PTZ-induced convulsions; [13],0* percent
same,Percent showing clonus,PTZ-induced convulsions; [13],0* percent
same,Percent showing extensor,PTZ-induced convulsions; [13],0* percent
same,Percent showing myoclonic jerks,PTZ-induced convulsions; [13],0* percent
same,Mortality,PTZ-induced convulsions; [14],0* percent
same,Percent showing clonus,PTZ-induced convulsions; [14],50* percent
same,Percent showing extensor,PTZ-induced convulsions; [14],0* percent
same,Percent showing myoclonic jerks,PTZ-induced convulsions; [14],50* percent
same,Mortality,PTZ-induced convulsions; [15],0* percent
same,Percent showing clonus,PTZ-induced convulsions; [15],0* percent
same,Percent showing extensor,PTZ-induced convulsions; [15],0* percent
same,Percent showing myoclonic jerks,PTZ-induced convulsions; [15],0* percent
same,"seizure threshold, picrotoxin infusion",[2]; [4],effective in enhancing the seizure threshold for only clonic phase and ineffective against tonic extension
same,"thresholds for all seizure signs, picrotoxin infusion","[2]; intraperitoneal 250, 500 and 1000 μg/kg, pretreatment 10 min (FIG. 3A)",significant elevation
same,"seizure thresholds, picrotoxin infusion","[2]; intratracheal 25 and 50 μg/kg, pretreatment 10 min (FIG. 3B)",effective
same,"thresholds for clonus and tonic extensor phases, kainic acid infusion","[3]; intraperitoneal 2000 μg/kg, pretreatment 10 min (FIG. 4A)",significant elevation
same,"seizure thresholds, kainic acid infusion","[3]; intratracheal 100 μg/kg, pretreatment 10 min (FIG. 4B)",effective
